Measurements from US7015351B2, “Reaction systems for making N-(phosphonomethyl) glycine compounds” (Monsanto Technology LLC, priority 2000, dated 2006).

How the values were obtained:
[1] = cited from earlier work
[2] = Solubility of N-(phosphonomethyl)glycine product in water / aqueous reaction mixture; type: physicochemical; conditions: oxidation operating temperatures from about 95 to about 105° C.

## O=C(O)CNCP(=O)(O)O [N-(phosphonomethyl)glycine]
[1]; aqueous reaction mixture, temperatures of from about 60° C. to 90° C.
  maximum N-(phosphonomethyl)glycine solubility: less than 6.5%

## CC(C)N.O=C(O)CNCP(=O)(O)O [isopropylamine salt of N-(phosphonomethyl)glycine]
[2]
  concentration at which the product remains soluble: ≥ 50 % by weight
[1]; at 25° C.
  solubility relative to the free acid: roughly 40 times
